The source of these data is PMC4457528, “Identification of Novel Small Molecule Inhibitors of Oncogenic RET Kinase” (PLoS ONE, 2015).

What all share (assay): KinomeScan kinase panel, single concentration 10 µM
Assay type in all cases: binding

For experiment [1], the target named is T1, KinomeScan kinase panel (Homo sapiens, UniProt P42336).
T1 construct: purchased DiscoveRx (KinomeScan)
The following applies: PIK3CA, 10 µM; read-out: score (%).

For experiment [2], the target named is T2, KinomeScan kinase panel (Homo sapiens, UniProt Q13873).
T2 construct: purchased DiscoveRx (KinomeScan)
T2 sequence (Q13873 27-1038): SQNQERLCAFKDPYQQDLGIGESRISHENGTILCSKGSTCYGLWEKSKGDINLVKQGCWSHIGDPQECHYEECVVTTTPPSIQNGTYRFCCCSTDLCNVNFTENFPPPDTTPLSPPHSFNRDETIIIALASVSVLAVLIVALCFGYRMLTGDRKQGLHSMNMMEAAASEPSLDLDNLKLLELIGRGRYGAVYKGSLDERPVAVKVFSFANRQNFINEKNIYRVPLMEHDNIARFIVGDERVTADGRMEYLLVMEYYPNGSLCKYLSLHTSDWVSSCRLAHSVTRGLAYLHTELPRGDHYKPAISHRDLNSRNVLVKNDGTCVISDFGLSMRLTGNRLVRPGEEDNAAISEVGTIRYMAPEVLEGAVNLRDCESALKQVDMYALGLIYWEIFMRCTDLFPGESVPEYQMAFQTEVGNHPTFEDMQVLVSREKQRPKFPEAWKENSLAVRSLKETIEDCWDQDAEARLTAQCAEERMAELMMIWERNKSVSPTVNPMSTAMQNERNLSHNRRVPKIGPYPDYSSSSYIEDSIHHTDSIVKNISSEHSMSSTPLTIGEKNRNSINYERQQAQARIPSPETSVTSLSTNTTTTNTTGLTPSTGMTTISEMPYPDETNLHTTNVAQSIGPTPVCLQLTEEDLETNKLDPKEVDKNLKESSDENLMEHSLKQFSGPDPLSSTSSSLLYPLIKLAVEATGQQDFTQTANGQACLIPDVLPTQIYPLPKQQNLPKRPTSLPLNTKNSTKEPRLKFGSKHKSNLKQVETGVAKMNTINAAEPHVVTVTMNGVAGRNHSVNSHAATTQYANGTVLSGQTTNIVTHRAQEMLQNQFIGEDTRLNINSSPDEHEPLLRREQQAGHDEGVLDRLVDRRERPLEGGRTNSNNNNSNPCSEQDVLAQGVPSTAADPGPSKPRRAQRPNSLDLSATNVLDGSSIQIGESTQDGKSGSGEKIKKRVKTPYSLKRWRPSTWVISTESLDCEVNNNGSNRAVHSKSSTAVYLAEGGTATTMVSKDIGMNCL
The settings on record: BMPR2, 10 µM.

The target of experiment [3] is T3, KinomeScan kinase panel (Homo sapiens, UniProt Q8TDC3).
T3 construct: purchased DiscoveRx (KinomeScan)
T3 sequence (Q8TDC3 1-778): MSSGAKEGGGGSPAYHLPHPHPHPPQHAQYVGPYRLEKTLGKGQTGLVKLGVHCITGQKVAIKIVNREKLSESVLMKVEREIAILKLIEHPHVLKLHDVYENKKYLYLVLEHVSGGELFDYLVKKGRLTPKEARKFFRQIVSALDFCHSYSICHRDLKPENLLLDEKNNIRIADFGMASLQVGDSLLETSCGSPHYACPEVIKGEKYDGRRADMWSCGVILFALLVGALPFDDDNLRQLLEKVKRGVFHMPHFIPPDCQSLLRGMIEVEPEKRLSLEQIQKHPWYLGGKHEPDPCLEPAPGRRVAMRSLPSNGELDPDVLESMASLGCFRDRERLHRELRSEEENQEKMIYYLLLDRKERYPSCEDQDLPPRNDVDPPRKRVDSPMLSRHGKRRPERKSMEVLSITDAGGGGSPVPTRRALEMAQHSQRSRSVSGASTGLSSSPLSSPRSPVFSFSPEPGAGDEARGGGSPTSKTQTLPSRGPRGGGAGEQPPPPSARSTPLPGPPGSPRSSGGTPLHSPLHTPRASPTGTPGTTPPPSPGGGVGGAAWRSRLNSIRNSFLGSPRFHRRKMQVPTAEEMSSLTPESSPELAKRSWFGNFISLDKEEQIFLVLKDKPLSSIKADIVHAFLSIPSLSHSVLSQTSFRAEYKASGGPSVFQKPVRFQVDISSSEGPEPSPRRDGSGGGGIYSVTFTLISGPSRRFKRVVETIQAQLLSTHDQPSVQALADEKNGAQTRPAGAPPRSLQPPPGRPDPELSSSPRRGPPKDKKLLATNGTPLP
The following applies: BRSK1, 10 µM; read-out: score (%).

In experiment [4] the target is T4, KinomeScan kinase panel (Homo sapiens, UniProt Q96L34).
T4 construct: purchased DiscoveRx (KinomeScan)
T4 sequence (Q96L34 1-752): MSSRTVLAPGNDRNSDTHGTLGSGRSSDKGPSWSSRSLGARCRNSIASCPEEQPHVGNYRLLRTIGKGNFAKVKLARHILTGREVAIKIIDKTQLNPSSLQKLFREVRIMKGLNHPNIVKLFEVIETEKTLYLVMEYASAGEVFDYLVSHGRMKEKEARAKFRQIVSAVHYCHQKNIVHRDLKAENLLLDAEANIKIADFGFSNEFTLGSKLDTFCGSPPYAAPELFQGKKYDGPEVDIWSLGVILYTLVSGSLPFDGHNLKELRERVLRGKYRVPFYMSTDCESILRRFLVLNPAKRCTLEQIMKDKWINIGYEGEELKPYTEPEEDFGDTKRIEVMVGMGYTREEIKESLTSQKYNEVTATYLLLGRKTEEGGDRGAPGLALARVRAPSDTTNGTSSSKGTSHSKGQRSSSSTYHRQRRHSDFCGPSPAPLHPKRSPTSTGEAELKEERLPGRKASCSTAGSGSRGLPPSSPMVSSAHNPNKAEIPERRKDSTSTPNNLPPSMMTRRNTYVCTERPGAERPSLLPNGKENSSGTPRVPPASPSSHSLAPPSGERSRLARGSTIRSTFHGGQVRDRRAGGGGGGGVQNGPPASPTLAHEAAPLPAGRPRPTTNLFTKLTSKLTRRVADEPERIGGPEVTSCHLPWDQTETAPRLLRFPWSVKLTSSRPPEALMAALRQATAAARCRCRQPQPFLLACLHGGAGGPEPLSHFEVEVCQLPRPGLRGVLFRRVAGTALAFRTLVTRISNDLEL
The following applies: MARK4, 10 µM.

Each structure is given as a SMILES string.

T1 sequence (P42336 whole entry): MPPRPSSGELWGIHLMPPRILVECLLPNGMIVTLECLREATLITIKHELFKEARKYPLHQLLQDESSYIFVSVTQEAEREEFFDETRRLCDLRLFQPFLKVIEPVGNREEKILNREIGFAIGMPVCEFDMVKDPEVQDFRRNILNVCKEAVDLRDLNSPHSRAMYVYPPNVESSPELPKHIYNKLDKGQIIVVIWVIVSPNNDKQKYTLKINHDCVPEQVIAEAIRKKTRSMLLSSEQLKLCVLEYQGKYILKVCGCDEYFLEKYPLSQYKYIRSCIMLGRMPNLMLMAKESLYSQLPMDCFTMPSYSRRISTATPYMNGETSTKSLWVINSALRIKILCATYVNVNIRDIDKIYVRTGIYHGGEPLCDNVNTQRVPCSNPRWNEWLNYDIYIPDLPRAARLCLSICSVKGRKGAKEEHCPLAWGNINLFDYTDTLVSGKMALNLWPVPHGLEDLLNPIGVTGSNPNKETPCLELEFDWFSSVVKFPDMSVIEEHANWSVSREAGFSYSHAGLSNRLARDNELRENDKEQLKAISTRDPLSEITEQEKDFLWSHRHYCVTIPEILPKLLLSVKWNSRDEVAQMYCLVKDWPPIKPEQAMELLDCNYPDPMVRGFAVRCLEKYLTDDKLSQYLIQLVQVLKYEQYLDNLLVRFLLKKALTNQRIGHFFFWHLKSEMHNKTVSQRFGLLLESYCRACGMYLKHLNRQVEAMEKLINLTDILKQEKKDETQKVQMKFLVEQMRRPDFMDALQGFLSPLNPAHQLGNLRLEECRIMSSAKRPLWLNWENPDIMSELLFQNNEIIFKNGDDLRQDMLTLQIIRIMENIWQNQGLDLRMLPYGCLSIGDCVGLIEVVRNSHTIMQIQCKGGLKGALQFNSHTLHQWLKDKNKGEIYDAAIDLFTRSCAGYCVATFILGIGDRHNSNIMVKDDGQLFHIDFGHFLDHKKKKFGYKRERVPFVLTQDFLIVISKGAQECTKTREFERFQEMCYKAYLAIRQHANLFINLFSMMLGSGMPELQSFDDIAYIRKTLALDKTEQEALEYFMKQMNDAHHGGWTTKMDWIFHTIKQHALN

As to `CCN1CCN(Cc2ccc(NC(=O)c3ccc(C)c(NC(=O)c4cncc(-c5cccs5)c4)c3)cc2C(F)(F)F)CC1` [ALW-II-41-27], the remaining binding at 10 µM in experiment [1] and in experiment [3] was > 30% each time. In addition, the “score (%)” value in experiment [2] and in experiment [4] was “nb (Hits values higher than 30% were considered negative (no binding: nb))” in each case.
Consider `CCN1CCN(Cc2ccc(NC(=O)c3ccc(C)c(/C=C/c4cnc5[nH]ccc5c4Cl)c3)cc2C(F)(F)F)CC1` [HG-6-63-01, (E)-3-(2-(4-chloro-1H-pyrrolo[2,3-b]pyridin-5-yl)vinyl)-N-(4-((4-ethylpiperazin-1-yl)methyl)-3-(trifluoromethyl)phenyl)-4-methylbenzamide], for which the remaining binding at 10 µM in experiment [1] and in experiment [3] was > 30% throughout. Moreover, the “score (%)” value in experiment [2] is 8.2%; in experiment [4], 25%.
`CCN1CCN(Cc2ccc(NC(=O)c3ccc(C)c(C#Cc4cccnc4)c3)cc2C(F)(F)F)CC1` [XMD15-44]: the remaining binding at 10 µM is 100% in experiment [1] and > 30% in experiment [3]. In addition, the “score (%)” value in experiment [2] and in experiment [4] was “nb (Hits values higher than 30% were considered negative (no binding: nb))” throughout.
